Measured values reported in patent US20100120690A1, “Polypeptides Having Antimicrobial Activity and Polynucleotides Encoding Same” (Novozymes Adenium Biotech A/S, priority 2005, published 2010).

Tests used:
M. luteus [1] = experiment: Minimal Inhibitory Concentration, NCCLS guidelines (Example 4); type: cell-based, Micrococcus luteus; details: purified peptide
Procedure: (§1) The Minimal Inhibitory Concentration (MIC, micrograms/mL) was determined to test for their antimicrobial activity following the NCCLS guidelines (Clinical and Laboratory Standards Institute; formerly known as National Committee for Clinical and Laboratory Standards).

B. subtilis [2] = experiment: as above; type: cell-based, Bacillus subtilis; details: purified peptide
Procedure: as §1

S. aureus = experiment: as above; type: cell-based, Staphylococcus aureus; details: purified peptide
Procedure: as §1

[3] = system: panel of 6 different strains of Staphylococcus aureus; experiment: Average MIC, NCCLS/CLSI guidelines using caMHB (Example 6); type: cell-based; details: average over 6 S. aureus strains, duplicate; MIC above 32 counted as 64; read after 18-24 hours at 37° C.
Procedure, shortened: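 MICs were determined by broth dilution per NCCLS/CLSI in caMHB against six S. aureus strains (four MSSA, two MRSA), with peptides at 0.03–32 microgram/mL, read after 18-24 h at 37° C. Each was tested in duplicate and the two results averaged; MICs above 32 micrograms/mL were counted as 64.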

Staphylococcus carnosus = experiment: TAPS (Trans Acting Peptide System) assay, radial diffusion read-out; type: cell-based; design: key: classified as 4>3>2>1; whereas 4 is better than 1; classified as 4>3>2>1; classified as 4>3>2>1; wildtype activity corresponds to 1; details: peptide expressed in E. coli
Procedure: A range of antimicrobial polypeptides, which are variants of SEQ ID NO: 1, were tested in the TAPS assay. TAPS may be used to identify new or improved genes encoding peptides that can kill or inhibit the growth of target cells (see PCT application WO 2004/033715). The TAPS assay, an acronym for Trans Acting Peptide System, is based on having a sensitive host producing a peptide followed by screening for its activity in trans against an indicator strain. The advantage of this system is based on that the antimicrobial peptide is expressed in the Gram-negative bacterium E. coli and its antimicrobial activity can be monitored on different microbes including Gram-negatives, positives or fungi. Additionally, TAPS offers the possibility to produce correctly folded AMPs containing disulfide bonds in the host cells, thereby retaining their antimicrobial activities.
The TAPS approach requires first, that expression of the peptide is under control of an inducible promoter with tight regulation, because the host cells are sensitive to the peptide when producing it. Secondly, the produced peptide has to be released to the media so that it can interact with the target organism.
The TAPS screening can be carried out either in solid or liquid media. On solid media, a plasmid library is initially introduced into E. coli host cells. […] In the next step, the filter containing the colonies is transferred to LB growth medium containing inducer (0.1% arabinose) to permit peptide synthesis. Subsequently, the target strain, for example S. carnosus, is overlaid onto the plate and allowed to grow for 12-16 hours at 37° C. Finally, visual inspection of the host cells capable of reducing the proliferation of the target cells is performed and the nucleotide sequence encoding for the antimicrobial peptide is recovered from the host cells. DNA sequence analysis of the variants is obtained to elucidate the nature of the peptide.
As mentioned above, the TAPS screening can also be performed using liquid medium. This procedure requires the use of robotics to analyze large number of clones. In this system, the host E. coli origami cells are transformed with the plasmid library and plated out on LB medium+0.2% glucose+ampicillin (200 mg/L). Independent colonies are then inoculated into 96 or 384-well plates containing 200 micro-L of TB medium+ampicillin (200 mg/L) and cultured overnight at 37° C. These cultures are then replicated robotically and grown to exponential phase until inducer (0.1% arabinose) is added to trigger peptide synthesis. The next step consists in hydrolyzing the cells such that the peptide is released to the media by hot acid hydrolysis. This treatment consists on adding 1 M sodium Phosphate buffer pH 2.3 to obtain a final pH approximately of 2.3 and incubating the cultures overnight at 80° C. Next day, a 25 micro-L aliquot of the hydrolyzed cultures is used to perform an activity test against the desired target organisms. The activity test performed was a Radial Diffusion Assay (RDA) where an aliquot of the hydrolyzed cultures was added to the agarose media inoculated with the target strain, S. carnosus. […] Measurements of the diameter of the clearing zones were performed to quantify the potency of the antimicrobial activity of the peptides.
The antimicrobial activity (against Staphylococcus carnosus) of the tested plectasin variants, which was measured using the TAPS assay, is shown in table 3. The antimicrobial activity corresponds to the clearing zone size and has been classified as 4>3>2>1; whereas 4 is better than 1, and wildtype activity corresponds to 1.

[4] = system: Staphylococcus aureus, MRSA ST5 (2001); experiment: MIC, NCCLS/CLSI guidelines (Example 5), strain D; type: cell-based; details: relative to wildtype Plectasin; average of two independent experiments
Procedure, shortened: (§2)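 MICs of purified plectasin peptides are measured according to NCCLS/CLSI guidance. Each value averages duplicate independent experiments and is given as a category relative to wild-type: 0 above 100%, 1 80-100%, 2 50-80%, 3 below 50%.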

[5] = system: Staphylococcus aureus, ATCC 29213; experiment: MIC, NCCLS/CLSI guidelines (Example 5), strain A; type: cell-based; details: relative to wildtype Plectasin; average of two independent experiments
Procedure, shortened: (§3)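 Scores express each variant's MIC as a fraction of wild-type plectasin MIC (0: >100%; 1: 80-100%; 2: 50-80%; 3: <50%), averaged over two independent runs. Purified recombinant peptides; MIC by the CLSI (formerly NCCLS) method.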

[6] = system: Staphylococcus aureus, ATCC 25923; experiment: MIC, NCCLS/CLSI guidelines (Example 5), strain B; type: cell-based; details: relative to wildtype Plectasin; average of two independent experiments
Procedure, shortened: as §3

[7] = system: Staphylococcus aureus, MRSA ST80 (2003); experiment: MIC, NCCLS/CLSI guidelines (Example 5), strain E; type: cell-based; details: relative to wildtype Plectasin; average of two independent experiments
Procedure, shortened: as §2

[8] = system: Staphylococcus aureus, ATCC 29737; experiment: MIC, NCCLS/CLSI guidelines (Example 5), strain C; type: cell-based; details: relative to wildtype Plectasin; average of two independent experiments
Procedure, shortened: as §3

S. epidermis = experiment: Minimal Effective Concentration (MEC) assay; type: cell-based, Staphylococcus epidermidis
Procedure: (§4) Three antimicrobial polypeptides, which are variants of SEQ ID NO: 1, were tested for antimicrobial activity. A Minimal Effective Concentration assay (MEC, expressed as micrograms/mL) against different microorganisms was performed using the three plectasin mutants, Y40YR, N17R and Y25R following the protocol described in the book of Methods in Molecular Biology, Vol. 78, Antibacterial peptide protocol William M. Shafer, Human Press.

B. subtilis [9] = experiment: Minimal Effective Concentration (MEC) assay; type: cell-based, Bacillus subtilis
Procedure: as §4

M. luteus [10] = experiment: Minimal Effective Concentration (MEC) assay; type: cell-based, Micrococcus luteus
Procedure: as §4

Row | Substance | MIC against M. luteus (M. luteus [1]) | MIC against B. subtilis (B. subtilis [2]) | MIC against S. aureus (S. aureus) | Average MIC [3] | Activity (antimicrobial activity, clearing zone size) (Staphylococcus carnosus) | Relative MIC, strain D [4] | Relative MIC, strain A [5] | Relative MIC, strain B [6] | Relative MIC, strain E [7] | Relative MIC, strain C [8] | MEC against S. epidermis (S. epidermis) | MEC against B. subtilis (B. subtilis [9]) | MEC against M. luteus (M. luteus [10])
1 | GFGCNGPWDEGDKQCHNHCKSIKGYRGGYCAKGGFVCKCYR [D11G + M13K + K26R + Y40YR] | 0.50 micrograms/mL | <0.03 micrograms/mL | 0.50 micrograms/mL | 12 micrograms/mL | 4 | – | – | – | – | – | – | – | –
2 | Q14K + K26R: variant of Plectasin (SEQ ID NO: 1) (GFGCNGPWDEDDMKCHNHCKSIKGYRGGYCAKGGFVCKCY) | 1 micrograms/mL | 0.13 micrograms/mL | 2 micrograms/mL | 6 micrograms/mL | – | 3 (<50% of Plectasin wildtype MIC) | 3 (<50% of Plectasin wildtype MIC) | 2 (50-80% of Plectasin wildtype MIC) | 3 (<50% of Plectasin wildtype MIC) | 3 (<50% of Plectasin wildtype MIC) | – | – | –
3 | GFGCNGPWDEGDMQCHNHCKSIKGYRGGYCAKGGFVCKCYR (Synthetic antimicrobial polypeptide) [D11G + K26R + Y40YR] | 0.25 micrograms/mL | 0.06 micrograms/mL | 0.50 micrograms/mL | 9 micrograms/mL | 4 | 3 (<50% of Plectasin wildtype MIC) | 3 (<50% of Plectasin wildtype MIC) | 3 (<50% of Plectasin wildtype MIC) | – | 3 (<50% of Plectasin wildtype MIC) | – | – | –
4 | GFGCNGPWDEDDKQCHNHCKSIKGYKGGYCAKGGFVCKCYR [M13K + Y40YR] | 2 micrograms/mL | 0.25 micrograms/mL | 2 micrograms/mL | 12 micrograms/mL | 4 | – | – | – | – | – | – | – | –
5 | GFGCNGPWDEDDMQCHRHCKSIKGYKGGYCAKGGFVCKCY [Mutation N17R] | – | – | – | 4 micrograms/mL | 2 | 3 (<50% of Plectasin wildtype MIC) | – | 3 (<50% of Plectasin wildtype MIC) | 2 (50-80% of Plectasin wildtype MIC) | 3 (<50% of Plectasin wildtype MIC) | 0.59 micrograms/mL | 0.07 micrograms/mL | 0.32 micrograms/mL
6 | Y25R (GFGCNGPWDEDDMQCHNHCKSIKGRKGGYCAKGGFVCKCY) [Mutation Y25R] | – | – | – | – | – | – | – | – | – | – | – | 0.04 micrograms/mL | 1.40 micrograms/mL
7 | GFGCNGPWDEGDMQCHNHCKSIKGYRGGYCAKGGFVCKCY [D11G + K26R] | 8 micrograms/mL | 0.50 micrograms/mL | 2 micrograms/mL | 11 micrograms/mL | 2 | – | – | – | – | – | – | – | –
8 | GFGCNGPWDEDDMQCHNHCKSIKGYKGGYCAKGGFVCKCYR [Mutation Y40YR] | – | – | – | – | 2 | – | – | – | – | – | 0.31 micrograms/mL | 0.05 micrograms/mL | 0.18 micrograms/mL
9 | GFGCNGPWDEDDKQCHNHCKSIKGYKGGYCAKGGFVCRCY [M13K + K38R] | – | – | – | 6 micrograms/mL | 4 | 2 (50-80% of Plectasin wildtype MIC) | 1 (80-100% of Plectasin wildtype MIC) | 3 (<50% of Plectasin wildtype MIC) | 3 (<50% of Plectasin wildtype MIC) | 3 (<50% of Plectasin wildtype MIC) | – | – | –
